Data from US6057119A, “Crystal structure and mutants of interleukin-1β converting enzyme” (Vertex Pharmaceuticals, Incorporated, priority 1995, dated 2000).

Target: T1, human interleukin-1β converting enzyme (ICE), wild type, autoprocessed p20/p10 from p30 precursor (residues Asn 120 to His 404 of p45), SEQ ID No: 1 (Homo sapiens, UniProt P29466)
T1 construct: the concomitant appearance of the p20 and p10 subunits, was monitored by SDS-PAGE, evidence that autocatalytic processing of the enzyme had occurred; made in house
T1 sequence (P29466 120-297): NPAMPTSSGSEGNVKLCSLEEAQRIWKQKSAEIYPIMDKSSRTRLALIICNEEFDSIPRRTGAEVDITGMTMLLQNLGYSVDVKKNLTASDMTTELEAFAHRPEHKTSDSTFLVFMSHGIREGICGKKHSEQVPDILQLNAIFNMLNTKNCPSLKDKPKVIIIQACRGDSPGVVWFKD
T1 sequence (P29466 317-404): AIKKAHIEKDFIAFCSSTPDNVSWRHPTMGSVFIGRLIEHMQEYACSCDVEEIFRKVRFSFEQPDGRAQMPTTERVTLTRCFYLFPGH
Assay: Inhibition of autoprocessed ICE by tetrapeptide aldehyde inhibitor (activity assayed by hydrolysis of Succinyl-Tyr-Val-Ala-Asp-p-nitroanilide)
Type: biochemical
Details: 2× molar excess of inhibitor over enzyme
Procedure: The protein was concentrated to 3-5 mg/ml by ultrafiltration at 4° C., followed by incubation at room temperature. The disappearance of the p30 precursor, and the concomitant appearance of the p20 and p10 subunits, was monitored by SDS-PAGE, evidence that autocatalytic processing of the enzyme had occurred. ICE enzymatic activity was assayed by hydrolysis of a Succinyl-Tyr-Val-Ala-Asp-p-nitroanilide substrate at 37° C. and correlated closely with conversion to subunits.
The protein-inhibitor complex sample was concentrated and fractionated by size-exclusion chromatography, in final preparation for crystallization experiments.

In the case of CC(=O)N[C@@H](Cc1ccc(O)cc1)C(=O)N[C@H](C(=O)N[C@@H](C)C(=O)N[C@H](C=O)CC(=O)O)C(C)C [acetyl-Tyr-Vol-Ala-Asp-H], the “inhibition of autoprocessed ICE” value is reported as “inhibited fully”.
